Literature values in patent US10006071B2, “Methods to control secretion of metabolic byproducts in algae to enhance recovery of said byproducts” (Institute for Systems Biology, priority 2010, dated 2018).
Like-named read-outs stand apart in the source and are kept apart here. Residues, ends and D or L forms follow the SMILES beside them. *: point of attachment. Cbz = O=C(OCc1ccccc1)*; CH2F = FC*

Key:
Metacaspase [1] = tested on: Metacaspase
metacaspase [2] = tested on: metacaspase

Row | SMILES | inhibition of caspase-8 (Caspase-8) | inhibition of caspase-6 (Caspase-6) | inhibition of caspase-3 (caspase-3) | inhibition of caspase-9 (Caspase-9) | inhibition of caspase-1 (Caspase-1) | inhibition of metacaspase (Metacaspase [1]) | effect on apoptosis (apoptosis) | further results
1 | CC(=O)N[C@@H](CC(=O)O)C(=O)N[C@@H](CCC(=O)O)C(=O)N[C@H](C(=O)N[C@H](C=O)CC(=O)O)C(C)C [AcDEVD-CHO] | – | – | – | – | – | inhibited | – | inhibition of caspase-3 (caspase-3; Chlorella saccharophila): inhibit
2 | c1ccc(CN(CCN(Cc2ccccn2)Cc2ccccn2)Cc2ccccn2)nc1 [TPEN, N,N,N′,N′-tetrakis(2-pyridylmethyl)ethylenediamine] | – | – | – | – | – | – | permits apoptosis to occur | –
3 | COC(=O)C[C@H](NC(=O)[C@H](C)NC(=O)[C@@H](NC(=O)OCc1ccccc1)C(C)C)C(=O)CF [zVAD-fmk] (Cbz-Val-Ala-Asp(OMe)-CH2F) | – | – | – | – | – | inhibited | – | –
4 | O=C(O)CN(CCN(CC(=O)O)CC(=O)O)CCN(CC(=O)O)CC(=O)O [DTPA, diethylene triamine pentaacetic acid] | – | – | – | – | – | – | permits apoptosis to occur | –
5 | COC(=O)CC[C@H](NC(=O)[C@H](CC(=O)OC)NC(=O)OCc1ccccc1)C(=O)N[C@H](C(=O)N[C@@H](CC(=O)OC)C(=O)CF)C(C)C [Z-DEVD-FMK] | – | – | – | – | – | inhibited | – | inhibition of metacaspase (metacaspase [2]): inhibits

Continued, in another order:

Row | inhibition of caspase-8 (Caspase-8) | inhibition of caspase-6 (Caspase-6) | inhibition of caspase-3 (caspase-3) | inhibition of caspase-9 (Caspase-9) | inhibition of caspase-1 (Caspase-1) | SMILES | inhibition of metacaspase (Metacaspase [1]) | effect on apoptosis (apoptosis) | further results
6 | inhibited | inhibited | inhibit | inhibited | inhibited | CC(=O)N[C@@H](Cc1ccc(O)cc1)C(=O)N[C@@H](CCC(=O)O)C(=O)N[C@H](C(=O)N[C@@H](CC(=O)O)C(=O)CCl)C(C)C [Ac-YEVD-CMK] (HELM PEPTIDE1{[ac].Y.E.V.D.[ClC[*:1]]}$$$$V2.0) | – | – | –
7 | inhibited | inhibited | inhibit | inhibited | inhibited | CC(=O)N[C@H](C(=O)N[C@@H](C)C(=O)N[C@@H](CC(=O)O)C(=O)CF)C(C)C [Ac-VAD-FMK] (HELM PEPTIDE1{[ac].V.A.D.[FC[*:1]]}$$$$V2.0) | – | – | –
8 | – | – | potent inhibitor | – | – | [Zn+2] [Zn^+2] | – | inhibit apoptosis | –
9 | inhibited | inhibited | inhibit | inhibited | inhibited | COC(=O)CC(NC(=O)OC(C)(C)C)C(=O)CF [Boc D-FMK] | – | – | –
